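Growth conditions: 96-well plates. Treatment: test compound, 48 hours, 5 concentrations. Analysis: linear interpolation between bracketing concentrations; unreached endpoints set to highest concentration. GI50 marks 50% less growth. Definition used: TGI = concentration required for complete inhibition of growth.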

One test concerns TK-10 renal. The experiment in a line: inhibition of tumour cell growth, NCI panel, 48 h.
The compound `CC(C)(C)OC(=O)NC(C)(C)C(=O)NCCC(=O)O` gave a TGI of more than 100 µM.
The same measure, in the same setting: under `COc1ccc(C2C(Cl)C(=O)N2NC(=O)c2ccc(NC(C)=O)cc2)cc1` (centres undefined) stands more than 100 µM.
The compound `C=CCN(CC=C)Cn1c(=S)sc2ccccc21` came in with a TGI of more than 100 µM.
On the same count and under the same terms, the figure for `O=C1O[C@@H](c2ccccc2)C[C@@H]1CN1CCOCC1` is more than 100 µM.
Same read-out and setting: under `CCOC(=O)c1c(NC(=O)c2ccccc2)sc2c1CCCC2` stands more than 100 µM.
Compound `CCOC(=O)C(OCC1CC=CCC1)Sc1ccccc1` (centres undefined) gave a TGI of more than 100 µM.
`c1cc(-c2cnc(-c3ccc4c(c3)CCCO4)o2)ccn1` returned a TGI of 42.1 µM.

The next test relates to OVCAR-4 ovarian. Description: inhibition of tumour cell growth, NCI panel, 48 h.
In turn, `Cc1ccc2c(c1)nc(N)n[n+]2[O-]` yielded a TGI of more than 100 µM.
`Cc1cn(C2CC(N)C(CN)O2)c(=O)[nH]c1=O` (centres undefined) returned a TGI of more than 100 µM.
In turn, `CC(C)CC(N)C(=O)OCN1C(=O)C2C3C=CC(C2C1=O)C1C2C(=O)N(COC(=O)C(N)CC(C)C)C(=O)C2C31` (centres undefined) had a TGI of more than 100 µM.
On the same count and under the same terms, the figure for `O=C1CC(O)c2c1csc2Br` (centres undefined) is 96.2 µM.
As to `CCCCCCCCCC[C@@H](O)[C@H]1CC[C@H]([C@H]2CC[C@H]([C@H](O)CCCCCCCCCC[C@@H]3CC(CC(C)=O)C(=O)O3)O2)O1` (some centres undefined), the TGI is more than 50 µM.
The same measure, in the same setting: the figure for `CC(C)(C)C(=O)C(CC(=O)c1ccccc1)C(=O)C(C)(C)C` is more than 100 µM.
In the case of `COC(=O)c1cc(CC(C)C)c2c(c1)[nH]c1ccccc12`, the TGI is more than 100 µM.
Still for that read-out and setting: the figure for `Clc1nc(Cl)nc(NC23CC4CC(CC(C4)C2)C3)n1` is 39.2 µM; for `CCOC(=O)c1cc2c([N+](=O)[O-])c(NC(C)=O)ccc2s1` it is more than 100 µM; for `C[N+](C)(C)CC(=O)N/N=c1\cc(C(=O)Nc2ccc(N=O)cc2C#N)oc2cc(O)ccc12` it is more than 100 µM.
Same read-out and setting: under `CCOC(=O)c1cc(=C2\CCN(CC(C)CC)C2=S)/c(=C(/O)CC)[nH]1` (centres undefined) stands 30.9 µM; under `Cc1ccc2c(c1C)CC1(Cc3c(ccc4c3CCC4)C1=O)C2=O` (centres undefined), more than 100 µM.
Consider `N#CCCN(c1ccc(C=Nc2cccc([N+](=O)[O-])c2)cc1)S(=O)(=O)c1ccccc1`, for which the TGI is more than 100 µM.
Same read-out and setting: under `COc1cc2oc(-c3ccc(O)cc3)c(OC3OC(C)C(O)C(O)C3O)c(=O)c2c(O)c1OC` (centres undefined) stands more than 100 µM.
On the same count and under the same terms, the figure for `CCCCc1c(O)nc(Nc2nc3ccccc3[nH]2)[nH]c1=O` is more than 100 µM; for `O=C1CC2(C[C@@H]3CCCCCCCCC[C@@H](C3)C2)N1` (some centres undefined) it is 36.3 µM; for `Cc1c(S(=O)(=O)c2ccccc2)c(N)n(Cc2ccccc2)c1C` it is more than 100 µM.
`N#CC1=C(N)OC2=C(CSc3ccccc32)C1c1ccc(Br)cc1` (centres undefined): the TGI was 19.3 µM.
`CC(C)(C)OC(=O)NC(C)(C)C(=O)NCCC(=O)O`: the TGI was more than 100 µM.
In turn, `COc1ccc(C2C(Cl)C(=O)N2NC(=O)c2ccc(NC(C)=O)cc2)cc1` (centres undefined) had a TGI of more than 100 µM.
On the same count and under the same terms, under `C=CCN(CC=C)Cn1c(=S)sc2ccccc21` stands more than 100 µM; under `O=C1O[C@@H](c2ccccc2)C[C@@H]1CN1CCOCC1`, more than 100 µM.
Still for that read-out and setting: the figure for `c1cc(-c2cnc(-c3ccc4c(c3)CCCO4)o2)ccn1` is 42.3 µM.

The test system of another test is SK-MEL-2 melanoma. Description: inhibition of tumour cell growth, NCI panel, 48 h.
In turn, `Cc1ccc2c(c1)nc(N)n[n+]2[O-]` gave a TGI of more than 100 µM.
Turning to `Cc1cn(C2CC(N)C(CN)O2)c(=O)[nH]c1=O` (centres undefined), the TGI was more than 100 µM.
Same read-out and setting: under `CC(C)CC(N)C(=O)OCN1C(=O)C2C3C=CC(C2C1=O)C1C2C(=O)N(COC(=O)C(N)CC(C)C)C(=O)C2C31` (centres undefined) stands more than 100 µM.
Regarding `O=C1CC(O)c2c1csc2Br` (centres undefined), the TGI was more than 100 µM.
Take `CCCCCCCCCC[C@@H](O)[C@H]1CC[C@H]([C@H]2CC[C@H]([C@H](O)CCCCCCCCCC[C@@H]3CC(CC(C)=O)C(=O)O3)O2)O1` (some centres undefined): the GI50 is 4.06 µM and the TGI is more than 50 µM.
Regarding `CC(C)(C)C(=O)C(CC(=O)c1ccccc1)C(=O)C(C)(C)C`, the TGI is more than 100 µM.
The compound `COC(=O)c1cc(CC(C)C)c2c(c1)[nH]c1ccccc12` registered a TGI of more than 100 µM.
The compound `Clc1nc(Cl)nc(NC23CC4CC(CC(C4)C2)C3)n1` gave a TGI of more than 41.8 µM.
As for `CCOC(=O)c1cc2c([N+](=O)[O-])c(NC(C)=O)ccc2s1`, the TGI was more than 100 µM.
On the same count and under the same terms, the figure for `C[N+](C)(C)CC(=O)N/N=c1\cc(C(=O)Nc2ccc(N=O)cc2C#N)oc2cc(O)ccc12` is more than 100 µM; for `CCOC(=O)c1cc(=C2\CCN(CC(C)CC)C2=S)/c(=C(/O)CC)[nH]1` (centres undefined) it is 44.4 µM; for `Cc1ccc2c(c1C)CC1(Cc3c(ccc4c3CCC4)C1=O)C2=O` (centres undefined) it is more than 100 µM.
`N#CCCN(c1ccc(C=Nc2cccc([N+](=O)[O-])c2)cc1)S(=O)(=O)c1ccccc1`: the TGI is more than 100 µM.
Consider `COc1cc2oc(-c3ccc(O)cc3)c(OC3OC(C)C(O)C(O)C3O)c(=O)c2c(O)c1OC` (centres undefined), for which the TGI was more than 100 µM.
On the same count and under the same terms, under `CCCCc1c(O)nc(Nc2nc3ccccc3[nH]2)[nH]c1=O` stands more than 100 µM; under `O=C1CC2(C[C@@H]3CCCCCCCCC[C@@H](C3)C2)N1` (some centres undefined), 37.7 µM; under `Cc1c(S(=O)(=O)c2ccccc2)c(N)n(Cc2ccccc2)c1C`, more than 100 µM.
The compound `N#CC1=C(N)OC2=C(CSc3ccccc32)C1c1ccc(Br)cc1` (centres undefined) displayed a TGI of 23 µM.
As for `CC(C)(C)OC(=O)NC(C)(C)C(=O)NCCC(=O)O`, the TGI is more than 100 µM.
Still for that read-out and setting: under `COc1ccc(C2C(Cl)C(=O)N2NC(=O)c2ccc(NC(C)=O)cc2)cc1` (centres undefined) stands more than 100 µM.
For `C=CCN(CC=C)Cn1c(=S)sc2ccccc21`, the TGI was more than 100 µM.
In turn, `O=C1O[C@@H](c2ccccc2)C[C@@H]1CN1CCOCC1` registered a TGI of more than 100 µM.
Still for that read-out and setting: the figure for `CCOC(=O)c1c(NC(=O)c2ccccc2)sc2c1CCCC2` is more than 100 µM; for `CCOC(=O)C(OCC1CC=CCC1)Sc1ccccc1` (centres undefined) it is more than 100 µM.
Same read-out and setting: under `c1cc(-c2cnc(-c3ccc4c(c3)CCCO4)o2)ccn1` stands 24.8 µM.

The next test has as its system HT29 colon. Description: inhibition of tumour cell growth, NCI panel, 48 h.
`Cc1ccc2c(c1)nc(N)n[n+]2[O-]` yielded a TGI of more than 100 µM.
`Cc1cn(C2CC(N)C(CN)O2)c(=O)[nH]c1=O` (centres undefined) came in with a TGI of more than 100 µM.
Compound `CC(C)CC(N)C(=O)OCN1C(=O)C2C3C=CC(C2C1=O)C1C2C(=O)N(COC(=O)C(N)CC(C)C)C(=O)C2C31` (centres undefined) gave a TGI of more than 100 µM.
In the case of `O=C1CC(O)c2c1csc2Br` (centres undefined), the TGI was more than 100 µM.
On the same count and under the same terms, the figure for `CCCCCCCCCC[C@@H](O)[C@H]1CC[C@H]([C@H]2CC[C@H]([C@H](O)CCCCCCCCCC[C@@H]3CC(CC(C)=O)C(=O)O3)O2)O1` (some centres undefined) is more than 50 µM.
The same measure, in the same setting: the figure for `CC(C)(C)C(=O)C(CC(=O)c1ccccc1)C(=O)C(C)(C)C` is more than 100 µM; for `COC(=O)c1cc(CC(C)C)c2c(c1)[nH]c1ccccc12` it is more than 100 µM; for `Clc1nc(Cl)nc(NC23CC4CC(CC(C4)C2)C3)n1` it is 37.9 µM.
The compound `CCOC(=O)c1cc2c([N+](=O)[O-])c(NC(C)=O)ccc2s1` displayed a TGI of more than 100 µM.
Turning to `C[N+](C)(C)CC(=O)N/N=c1\cc(C(=O)Nc2ccc(N=O)cc2C#N)oc2cc(O)ccc12`, the TGI was more than 100 µM.
In turn, `CCOC(=O)c1cc(=C2\CCN(CC(C)CC)C2=S)/c(=C(/O)CC)[nH]1` (centres undefined) returned a TGI of 48 µM.
With `Cc1ccc2c(c1C)CC1(Cc3c(ccc4c3CCC4)C1=O)C2=O` (centres undefined), the TGI is more than 100 µM.
Same read-out and setting: under `N#CCCN(c1ccc(C=Nc2cccc([N+](=O)[O-])c2)cc1)S(=O)(=O)c1ccccc1` stands more than 100 µM.

The values above are taken from PubChem BioAssay (NCI).
